Reference: patent US6824801B2, “Process for producing foods having good keeping qualities and food keeping agents” (Nihon Starch Co., Ltd., priority 2000, dated 2004)
Like-named read-outs stand apart in the source and are kept apart here. Each block holds one compound with its values, some of them ahead of it.

Assays:
[1] = test system: Streptococcus lactis IAM 1249; assay: minimum growth-inhibiting concentration (MIC) of AF, influence of heat treatment (Table A); type: cell-based
Source text: (§1) As described in the first process, 1,5-D-anhydrofructose is an antibacterial substance having a high safety, but the present inventors have found to obtain the following advantages when 1,5-D-anhydrofructose is previously subjected to a heat treatment. That is, an antibacterial power of 1,5-D-anhydrofructose can be further increased, and the antibacterial power is developed at a low concentration of 1,5-D-anhydrofructose, as compared with a case where 1,5-D-anhydrofructose is not subjected to the heat treatment. Consequently, a food containing 1,5-D-anhydrofructose is difficult to putrefy and at the same time, the antibacterial spectrum becomes wider.

[2] = test system: Escherichia coli NRIC 1023; assay: as above; type: cell-based
Source text: as §1

[3] = test system: Staphylococcus aureus FDA 209P; assay: as above; type: cell-based
Source text: as §1

[4] = test system: Bacillus subtillis IAM 1249; assay: as above; type: cell-based
Source text: as §1

[5] = test system: Salmonella typhimurium IFO 12529; assay: as above; type: cell-based
Source text: as §1

[6] = test system: Salmonella typhimurium IFO 12529; assay: number of bacteria killed by heating in soybean-casein digest broth medium pH 5.5 (FIG. 2); type: cell-based; settings: 1% 1,5-D-anhydrofructose, heated at 60° C. for 10 minutes, pH 5.5 broth
Source text: FIG. 2 is a curve indicating the number of which Salmonella typhimurium IFO 12529 killed by heating.
(§2) FIGS. 1 and 2 show curves each indicating the number of gram-negative bacteria killed in a soybean-casein digest broth medium (pH of 5.5) by heating.

[7] = test system: Bacillus subtillis IAM 1249; assay: Test Example 2 number of living bacteria in noodle soup preserved at 30° C. (FIG. 3)
Method: FIG. 3 is a graph showing the number of Bacillus. subtillis IAM 1249 living in a noodle soup under preservation.
(§3) This will be described in detail later in Test Example 2.
(§4) 40 Grams of a powdery soup stock (produced by Yamaki, Co.) and 200 ml of commercially available soy sauce were added to 1,000 ml of water to prepare a noodle soup. Bacteria were inoculated into the noodle soup, and the noodle soup was preserved at 30° C., and then, the number of living bacteria was counted. FIG. 3 is a curve showing the number of living Bacillus subtillis IAM 1249 (which will be simply referred to as B. subtillis hereinafter), and FIG. 4 is a curve showing the number of living Escherichia coli NRIC 1023 (which will be simply referred to as E. coli hereinafter). In FIGS. 3 and 4, A-1 and A′-1 are curves each indicating the number of living B. subtillis or E. colli inoculated into the unsterilized noodle soup. In the cases of A-1 and A′-1,1,5-D-anhydrofructose was not added, and P and P′ indicate the number of bacteria initially generated.
(§5) A-2 and A′-2 are curves each indicating the number of living B. subtillis or E. colli inoculated into the noodle soup sterilized by heating in hot water at […]. for 10 minutes. In the cases of A-2 and A′-2,1,5-D-anhydrofructose was not added, and the numbers of bacteria initially generated are indicated by Q and Q′, respectively. […]

many bacteria = settings: against many bacteria; 'has been recognized'; cited from earlier work
Lactobacillus casei = assay: Test Example 3 swelling of noodle soup sacks preserved at 30° C. (Table 13); settings: 2% of AF
Method: 40 Grams of a powdery soup stock (produced by […], Co.), 200 ml of commercially available soy sauce and 2% of AF were added to 1000 ml of water. The mixture was aseptically filtered and charged in an amount of 100 ml into each of ten polypropylene sacks previously sterilized. Meanwhile, 1 ml of the noodle soup (containing a number of living bacteria of 3.1×10^6/ml) deteriorated due to “swelling” caused by Lactobacillus casei was charged into each of the above-prepared ten sacks, which were then sealed so as air not to be left therein. The ten sacks were divided into two groups each consisting of five sacks. One of the groups was not heated, and the other group was heated in a hot water at 55° C. for 10 minutes. Then, both of them were preserved at 30° C., and the occurrence of “swelling” was observed.

[8] = test system: Escherichia coli NRIC 1023; assay: Test Example 2 number of living bacteria in noodle soup preserved at 30° C. (FIG. 4)
Method: FIG. 4 is a graph showing the number of Escherichia coli NRIC 1023 living in a noodle soup under preservation.
as §3, §4, §5

Bacillus subtillis = assay: Example 11 curry preservability, sensory evaluation test (Table 14); settings: curry with AF
Method: 7 Parts of beef, 57 parts of vegetables (12 parts of potato, 40 parts of onion and 5 parts of carrot), 1 part of a curry powder, 6 parts of fatty oil, 0.2 parts of sodium glutamate, 1 part of starch and 40 parts of a soup were mixed together, and the mixture was heated and cooked at 80° C. for 1 hour. The resulting product was a curry containing a somewhat larger amount of soup and having a low viscosity. The following operations were conducted in a clean bench. The curry was subdivided each in an amount of 95 grams into ten plugged vessels previously sterilized. The ten vessels were divided into two groups each consisting of five vessels. A 30% solution of AF subjected to an aseptic filtration was added in an amount of 5 g into each of the vessels in one of the groups. Then, 2×10 ^5 nutritious cells of Bacillus subtillis incubated previously were inoculated into the group, and was mixed uniformly. Five grams of a 30% solution of AF subjected to an aseptic filtration was added into each of the vessels in the other group. Then, 2×10^5 nutritious cells of Bacillus subtillis incubated previously were inoculated into the group, and after mixing uniformly, heated at 60° C. for 10 minutes and then cooled rapidly. Both of the groups were preserved at […], and the preservability of them was compared by a sensory evaluation test.

[9] = test system: Bacillus subtillis IAM 1249; assay: Test Example 1 antibacterial power test using turbidimetry (Table 12); type: cell-based; settings: for OD^660 (turbidity): shake culture 37° C., 72 hours
Method: AF was subjected to an antibacterial power test using a turbidimetry. More specifically, a soybean-casein digest broth medium (having a pH value of 5.5) previously sterilized and 1% of AF were placed into a test tube and heated under heating conditions shown in Table 12. Then, 8.7×10^4 CFU of Bacillus subtillis IAM 1249 was inoculated into the test tube, shake culture was carried out at 37° C. for 72 hours, and the turbidity (OD, 660 nm) was then measured.

[10] = test system: Pseudomonas aeruginosa IFO 12680; assay: number of bacteria killed by heating in soybean-casein digest broth medium pH 5.5 (FIG. 1); type: cell-based; settings: 1% 1,5-D-anhydrofructose, heating at 55° C. for ten minutes, pH 5.5 broth
Source text: FIG. 1 is a curve indicating the number of Pseudomonas aeruginosa IFO 12680 killed by heating.
as §2

[11] = noodle soup, heating at 550° C. for 10 minutes after addition of 1,5-D-anhydrofructose vs heating without it

- minimum growth-inhibiting concentration (MIC) [1]: 1%
- minimum growth-inhibiting concentration (MIC) [2]: 2%
- minimum growth-inhibiting concentration (MIC) [3]: 0.5%
- minimum growth-inhibiting concentration (MIC) [4]: 1%
- minimum growth-inhibiting concentration (MIC) [5]: 2%
Structure (SMILES): O=C1CO[C@H](CO)[C@@H](O)[C@@H]1O [heated AF, 1,5-D-anhydrofructose]

- minimum growth-inhibiting concentration (MIC) ([1]; listed as non-heated AF): 3%
- minimum growth-inhibiting concentration (MIC) ([2]; listed as non-heated AF): 5%
- minimum growth-inhibiting concentration (MIC) ([3]; listed as non-heated AF): 1.5%
- minimum growth-inhibiting concentration (MIC) ([4]; listed as non-heated AF): 3%
- minimum growth-inhibiting concentration (MIC) ([5]; listed as non-heated AF): 4%
Structure (SMILES): O=C1CO[C@H](CO)[C@@H](O)[C@@H]1O [AF, 1,5-D-anhydrofructose]
- number of bacteria remaining alive relative to the control [6]: one hundredth or less of that in the control
- proliferation of bacteria during preservation ([7]; noodle soup containing 1,5-D-anhydrofructose, 30° C., B-2 vs B-3): suppressed
- number of living bacteria initially generated (from Q to R) [7, 11]: reduced by about one figure
- concentration exhibiting proliferation-inhibiting effect (many bacteria): ≤ 1%
- number of normal sacks / total number of sacks (Lactobacillus casei; heated at 55° C. for 10 minutes, 5 preservation days at 30° C.): 5/5
- number of normal sacks / total number of sacks (Lactobacillus casei; heated at 55° C. for 10 minutes, 10 preservation days at 30° C.): 3/5
- number of normal sacks / total number of sacks (Lactobacillus casei; heated at 55° C. for 10 minutes, 15 preservation days at 30° C.): 1/5
- number of normal sacks / total number of sacks (Lactobacillus casei; heated at 55° C. for 10 minutes, 20 preservation days at 30° C.): 0/5
- number of normal sacks / total number of sacks (Lactobacillus casei; not heated, 5 preservation days at 30° C.): 4/5
- number of normal sacks / total number of sacks (Lactobacillus casei; not heated, 10 preservation days at 30° C.): 0/5
- proliferation of bacteria during preservation ([8]; noodle soup containing 1,5-D-anhydrofructose, 30° C., B′-2 vs B′-3): suppressed
- number of living bacteria initially generated (from Q′ to R′) [8, 11]: reduced by about one figure
- number of normal vessels / total number of vessels (Bacillus subtillis; Heated at 60° C. for 10 minutes, preservation time 12): 5/5
- number of normal vessels / total number of vessels (Bacillus subtillis; Heated at 60° C. for 10 minutes, preservation time 24): 5/5
- number of normal vessels / total number of vessels (Bacillus subtillis; Heated at 60° C. for 10 minutes, preservation time 36): 5/5
- number of normal vessels / total number of vessels (Bacillus subtillis; Heated at 60° C. for 10 minutes, preservation time 48): 5/5
- number of normal vessels / total number of vessels (Bacillus subtillis; Heated at 60° C. for 10 minutes, preservation time 60): 0/5
- number of normal vessels / total number of vessels (Bacillus subtillis; Not heated, preservation time 12): 5/5
- number of normal vessels / total number of vessels (Bacillus subtillis; Not heated, preservation time 24): 5/5
- number of normal vessels / total number of vessels (Bacillus subtillis; Not heated, preservation time 36): 0/5
- OD^660 (turbidity) ([9]; 1% of AF added and not heated): 0.836
- OD^660 (turbidity) ([9]; 1% of AF, heated at 55° C. for 10 minutes): 0.513
- OD^660 (turbidity) ([9]; 1% of AF, heated at 60° C. for 10 minutes): 0.437
- OD^660 (turbidity) ([9]; 1% of AF, heated at 80° C. for 10 minutes): 0.355
- OD^660 (turbidity) ([9]; 1% of AF, heated at 90° C. for 10 minutes): 0.338
- antibacterial power relative to the control with 1% of AF added and not heated ([9]; heated at 55° C. for 10 minutes after addition of 1% of AF, (1.160-0.513)/(1.160-0.836)): about two times
- number of bacteria remaining alive relative to the control [10]: one tenth of that in the control
